pIC50: −log10 of the molar value.
Experiments:
Digitaria sanguinalis [1] = assay: Pre-emergence herbicidal activity against Digitaria sanguinalis (hairy crabgrass) assessed as growth inhibition at 75 ai g/ha after 20 days by green house test; assay type: functional
Amaranthus spinosus [2] = assay: Post-emergence herbicidal activity against Amaranthus spinosus assessed as growth inhibition at 150 ai g/ha after 20 days by green house test; assay type: functional
[3] = target: Pyruvate dehydrogenase complex (Vigna radiata var. radiata); assay: Inhibition of PDHc in Vigna radiata var. radiata VC2778A shoot mitochondria assessed as decrease in rate of NADH formation using sodium pyruvate as substrate preincubated for 25 min before substrate addition measured after 1 min by spectrophotometric assay; assay type: protein-complex assay
Chenopodium album [4] = assay: Pre-emergence herbicidal activity against Chenopodium album assessed as growth inhibition at 150 ai g/ha after 20 days by green house test; assay type: functional
Setaria viridis [5] = assay: Post-emergence herbicidal activity against Setaria viridis (green foxtail) assessed as growth inhibition at 150 ai g/ha after 20 days by green house test; assay type: functional
Amaranthus spinosus [6] = assay: Post-emergence herbicidal activity against Amaranthus spinosus assessed as growth inhibition at 450 ai g/ha after 20 days by green house test; assay type: functional
Echinochloa crus-galli [7] = assay: Post-emergence herbicidal activity against Echinochloa crus-galli (barnyard grass) assessed as growth inhibition at 450 ai g/ha after 20 days by green house test; assay type: functional
Amaranthus spinosus [8] = assay: Pre-emergence herbicidal activity against Amaranthus spinosus assessed as growth inhibition at 75 ai g/ha after 20 days by green house test; assay type: functional
Digitaria sanguinalis [9] = assay: Pre-emergence herbicidal activity against Digitaria sanguinalis (hairy crabgrass) assessed as growth inhibition at 450 ai g/ha after 20 days by green house test; assay type: functional
Digitaria sanguinalis [10] = assay: Post-emergence herbicidal activity against Digitaria sanguinalis (hairy crabgrass) assessed as growth inhibition at 450 ai g/ha after 20 days by green house test; assay type: functional
Setaria viridis [11] = assay: Pre-emergence herbicidal activity against Setaria viridis (green foxtail) assessed as growth inhibition at 450 ai g/ha after 20 days by green house test; assay type: functional
Abutilon theophrasti [12] = assay: Post-emergence herbicidal activity against Abutilon theophrasti (velvetleaf) assessed as growth inhibition at 450 ai g/ha after 20 days by green house test; assay type: functional
Digitaria sanguinalis [13] = assay: Post-emergence herbicidal activity against Digitaria sanguinalis (hairy crabgrass) assessed as growth inhibition at 75 ai g/ha after 20 days by green house test; assay type: functional
Chenopodium album [14] = assay: Post-emergence herbicidal activity against Chenopodium album assessed as growth inhibition at 75 ai g/ha after 20 days by green house test; assay type: functional
Digitaria sanguinalis [15] = assay: Post-emergence herbicidal activity against Digitaria sanguinalis (hairy crabgrass) assessed as growth inhibition at 150 ai g/ha after 20 days by green house test; assay type: functional
Amaranthus spinosus [16] = assay: Pre-emergence herbicidal activity against Amaranthus spinosus assessed as growth inhibition at 450 ai g/ha after 20 days by green house test; assay type: functional
Setaria viridis [17] = assay: Post-emergence herbicidal activity against Setaria viridis (green foxtail) assessed as growth inhibition at 75 ai g/ha after 20 days by green house test; assay type: functional
Brassica juncea = assay: Post-emergence herbicidal activity against Brassica juncea assessed as growth inhibition at 450 ai g/ha after 20 days by green house test; assay type: functional
Amaranthus retroflexus [18] = assay: Post-emergence herbicidal activity against Amaranthus retroflexus assessed as growth inhibition at 450 ai g/ha after 20 days by green house test; assay type: functional
Chenopodium album [19] = assay: Pre-emergence herbicidal activity against Chenopodium album assessed as growth inhibition at 450 ai g/ha after 20 days by green house test; assay type: functional
[20] = Toxicity against Oryza sativa (rice) assessed as growth inhibition at 450 ai g/ha post-emergent application measured after 20 days by green house crop selectivity test; assay type: organism-based; conditions: in vivo, read-out: GI
Abutilon theophrasti [21] = assay: Post-emergence herbicidal activity against Abutilon theophrasti (velvetleaf) assessed as growth inhibition at 150 ai g/ha after 20 days by green house test; assay type: functional
Setaria viridis [22] = assay: Post-emergence herbicidal activity against Setaria viridis (green foxtail) assessed as growth inhibition at 450 ai g/ha after 20 days by green house test; assay type: functional
Setaria viridis [23] = assay: Pre-emergence herbicidal activity against Setaria viridis (green foxtail) assessed as growth inhibition at 75 ai g/ha after 20 days by green house test; assay type: functional
Chenopodium album [24] = assay: Post-emergence herbicidal activity against Chenopodium album assessed as growth inhibition at 450 ai g/ha after 20 days by green house test; assay type: functional
Abutilon theophrasti [25] = assay: Pre-emergence herbicidal activity against Abutilon theophrasti (velvetleaf) assessed as growth inhibition at 450 ai g/ha after 20 days by green house test; assay type: functional
Chenopodium album [26] = assay: Pre-emergence herbicidal activity against Chenopodium album assessed as growth inhibition at 75 ai g/ha after 20 days by green house test; assay type: functional
Amaranthus spinosus [27] = assay: Pre-emergence herbicidal activity against Amaranthus spinosus assessed as growth inhibition at 150 ai g/ha after 20 days by green house test; assay type: functional
Abutilon theophrasti [28] = assay: Pre-emergence herbicidal activity against Abutilon theophrasti (velvetleaf) assessed as growth inhibition at 150 ai g/ha after 20 days by green house test; assay type: functional
Pisum sativum = assay: Post-emergence herbicidal activity against Pisum sativum Zhongwan-2 (pea) assessed as growth inhibition at 450 ai g/ha after 20 days by green house test; conditions: Lathyrus oleraceus
Setaria viridis [29] = assay: Pre-emergence herbicidal activity against Setaria viridis (green foxtail) assessed as growth inhibition at 150 ai g/ha after 20 days by green house test; assay type: functional
Chenopodium album [30] = assay: Post-emergence herbicidal activity against Chenopodium album assessed as growth inhibition at 150 ai g/ha after 20 days by green house test; assay type: functional
Digitaria sanguinalis [31] = assay: Pre-emergence herbicidal activity against Digitaria sanguinalis (hairy crabgrass) assessed as growth inhibition at 150 ai g/ha after 20 days by green house test; assay type: functional
Cucumis sativus = assay: Herbicidal activity against Cucumis sativus Jin 4 (cucumber) assessed as inhibition of root growth after 3 days; assay type: functional, organism-based; conditions: Jin 4, 72 h
Abutilon theophrasti [32] = assay: Pre-emergence herbicidal activity against Abutilon theophrasti (velvetleaf) assessed as growth inhibition at 75 ai g/ha after 20 days by green house test; assay type: functional
Abutilon theophrasti [33] = assay: Post-emergence herbicidal activity against Abutilon theophrasti (velvetleaf) assessed as growth inhibition at 75 ai g/ha after 20 days by green house test; assay type: functional
Amaranthus spinosus [34] = assay: Post-emergence herbicidal activity against Amaranthus spinosus assessed as growth inhibition at 75 ai g/ha after 20 days by green house test; assay type: functional
Amaranthus retroflexus [35] = assay: Pre-emergence herbicidal activity against Amaranthus retroflexus assessed as growth inhibition at 1500 ai g/ha after 20 days by green house test; assay type: functional
[36] = system: Brassica rapa subsp. oleifera; assay: Post-emergence herbicidal activity against Brassica rapa subsp. oleifera Si Yue Man assessed as growth inhibition at 1500 ai g/ha after 20 days by green house test; assay type: functional
[37] = system: Brassica rapa subsp. oleifera; assay: Pre-emergence herbicidal activity against Brassica rapa subsp. oleifera Si Yue Man assessed as growth inhibition at 1500 ai g/ha after 20 days by green house test; assay type: functional
Medicago sativa [38] = assay: Post-emergence herbicidal activity against Medicago sativa (alfalfa) assessed as growth inhibition at 1500 ai g/ha after 20 days by green house test; assay type: functional
Amaranthus retroflexus [39] = assay: Post-emergence herbicidal activity against Amaranthus retroflexus assessed as growth inhibition at 1500 ai g/ha after 20 days by green house test; assay type: functional
Echinochloa crus-galli [40] = assay: Pre-emergence herbicidal activity against Echinochloa crus-galli (barnyard grass) assessed as growth inhibition at 1500 ai g/ha after 20 days by green house test; assay type: functional
Medicago sativa [41] = assay: Pre-emergence herbicidal activity against Medicago sativa (alfalfa) assessed as growth inhibition at 1500 ai g/ha after 20 days by green house test; assay type: functional
Digitaria sanguinalis [42] = assay: Post-emergence herbicidal activity against Digitaria sanguinalis (hairy crabgrass) assessed as growth inhibition at 1500 ai g/ha after 20 days by green house test; assay type: functional
Echinochloa crus-galli [43] = assay: Post-emergence herbicidal activity against Echinochloa crus-galli (barnyard grass) assessed as growth inhibition at 1500 ai g/ha after 20 days by green house test; assay type: functional
Digitaria sanguinalis [44] = assay: Pre-emergence herbicidal activity against Digitaria sanguinalis (hairy crabgrass) assessed as growth inhibition at 1500 ai g/ha after 20 days by green house test; assay type: functional

| SMILES | growth inhibition (GI) (Digitaria sanguinalis [1]) | growth inhibition (GI) (Amaranthus spinosus [2]) | growth inhibition (GI) (Chenopodium album [4]) | growth inhibition (GI) (Setaria viridis [5]) | growth inhibition (GI) (Amaranthus spinosus [6]) | growth inhibition (GI) (Amaranthus spinosus [8]) | growth inhibition (GI) (Digitaria sanguinalis [9]) | growth inhibition (GI) (Digitaria sanguinalis [10]) | growth inhibition (GI) (Setaria viridis [11]) | growth inhibition (GI) (Abutilon theophrasti [12]) | growth inhibition (GI) (Digitaria sanguinalis [13]) | growth inhibition (GI) (Chenopodium album [14]) | growth inhibition (GI) (Digitaria sanguinalis [15]) | growth inhibition (GI) (Amaranthus spinosus [16]) | growth inhibition (GI) (Setaria viridis [17]) | growth inhibition (GI) (Chenopodium album [19]) | growth inhibition (GI) (Abutilon theophrasti [21]) | growth inhibition (GI) (Setaria viridis [22]) | growth inhibition (GI) (Setaria viridis [23]) | growth inhibition (GI) (Chenopodium album [24]) | other results |
| --- | --- | --- | --- | --- | --- | --- | --- | --- | --- | --- | --- | --- | --- | --- | --- | --- | --- | --- | --- | --- | --- |
| CCOP(=O)(OCC)C(C)OC(=O)COc1ccc(Cl)cc1Cl (configuration not stated) | 0% | 82.5% | 0% | 0% | 100% | 0% | 10% | 0% | 5.5% | 100% | 0% | 62.5% | 0% | 50% | 0% | 52.5% | 97.5% | 0% | 0% | 97.5% | pIC50 [3]: 4.64; growth inhibition (GI) (Echinochloa crus-galli [7]): 5%; growth inhibition (GI) (Brassica juncea): 97.5%; growth inhibition (GI) (Amaranthus retroflexus [18]): 100%; inhibition at 480 h [20]: 37.5%; growth inhibition (GI) (Abutilon theophrasti [25]): 47.5%; growth inhibition (GI) (Chenopodium album [26]): 0%; growth inhibition (GI) (Amaranthus spinosus [27]): 0%; growth inhibition (GI) (Abutilon theophrasti [28]): 0%; growth inhibition (GI) (Pisum sativum): 82.5%; growth inhibition (GI) (Setaria viridis [29]): 0%; growth inhibition (GI) (Chenopodium album [30]): 92.5%; growth inhibition (GI) (Digitaria sanguinalis [31]): 0%; pIC50 (Cucumis sativus): 6.52; growth inhibition (GI) (Abutilon theophrasti [32]): 0%; growth inhibition (GI) (Abutilon theophrasti [33]): 97.5%; growth inhibition (GI) (Amaranthus spinosus [34]): 52.5% |
| COP(=O)(OC)C(OC(=O)COc1ccc(Cl)cc1C)c1cccc([N+](=O)[O-])c1 (configuration not stated) | 0% | 100% | 0% | 0% | 100% | 0% | 0% | 10% | 0% | 100% | 0% | 52.5% | 0% | 0% | 0% | 0% | 90% | 0% | 0% | 100% | growth inhibition (GI) (Amaranthus retroflexus [35]): 75%; growth inhibition (GI) [36]: 75%; growth inhibition (GI) [37]: 50%; growth inhibition (GI) (Medicago sativa [38]): 50%; growth inhibition (GI) (Amaranthus retroflexus [39]): 90%; growth inhibition (GI) (Echinochloa crus-galli [40]): 90%; growth inhibition (GI) (Medicago sativa [41]): 75%; growth inhibition (GI) (Abutilon theophrasti [25]): 0%; growth inhibition (GI) (Chenopodium album [26]): 0%; growth inhibition (GI) (Amaranthus spinosus [27]): 0%; growth inhibition (GI) (Abutilon theophrasti [28]): 0%; growth inhibition (GI) (Setaria viridis [29]): 0%; growth inhibition (GI) (Chenopodium album [30]): 82.5%; growth inhibition (GI) (Digitaria sanguinalis [31]): 0%; growth inhibition (GI) (Digitaria sanguinalis [42]): <=50%; growth inhibition (GI) (Echinochloa crus-galli [43]): 75%; growth inhibition (GI) (Abutilon theophrasti [32]): 0%; growth inhibition (GI) (Abutilon theophrasti [33]): 50%; growth inhibition (GI) (Amaranthus spinosus [34]): 50%; growth inhibition (GI) (Digitaria sanguinalis [44]): 90% |
